Experiments:
[1] = system: model mice for non-insulin-depending diabetes mellitus (KK-A^y); test: Blood-sugar level of KK-A^y diabetic model mice fed test feed for 30 days; assay type: in vivo; conditions: group D, feed D (2.5% L-arabinose, no sucrose) ad libitum, FIG. 2
Description: Twenty model mice for non-insulin-depending diabetes mellitus showing hyperglycemia (260˜270 mg/liter) (KK-A^y, male, 8 weeks age, Nippon Clair) were preliminarily raised for one week, divided into two groups (group A and group B) and used for the test. Each of the mice was placed in a plastic cage separately and raised by keeping at 23±1° C. under a 12-hour bright-and-dark cycle (bright environment from 7 a.m. to 7 p.m. and dark environment from 7 p.m. to 7 a.m. of the next day) where feed and water were freely taken by the mice. Blood-sugar level (concentration of glucose in blood) was measured by a glucose oxidase method after collecting the blood from the venous plexus of the eyeground at 9 a.m.
The feed A mentioned in Table 1 (a feed containing α-corn starch, sucrose, and cellulose as carbohydrate sources but containing no L-arabinose) was given to the mice of group A while the feed B mentioned in Table 1 (a feed containing α-com starch, sucrose, and cellulose as carbohydrate sources and also containing L-arabinose) was given to the mice of group B and the study was carried out for 30 days. […]

[2] = system: mice; conditions: 30 to 120 minutes after loading with sucrose; cited from earlier work
[3] = target: sucrase (Homo sapiens, UniProt P14410); conditions: sucrose-decomposing enzyme in the small intestine; cited from earlier work
Sequence of sucrase (P14410 whole entry, species assumed): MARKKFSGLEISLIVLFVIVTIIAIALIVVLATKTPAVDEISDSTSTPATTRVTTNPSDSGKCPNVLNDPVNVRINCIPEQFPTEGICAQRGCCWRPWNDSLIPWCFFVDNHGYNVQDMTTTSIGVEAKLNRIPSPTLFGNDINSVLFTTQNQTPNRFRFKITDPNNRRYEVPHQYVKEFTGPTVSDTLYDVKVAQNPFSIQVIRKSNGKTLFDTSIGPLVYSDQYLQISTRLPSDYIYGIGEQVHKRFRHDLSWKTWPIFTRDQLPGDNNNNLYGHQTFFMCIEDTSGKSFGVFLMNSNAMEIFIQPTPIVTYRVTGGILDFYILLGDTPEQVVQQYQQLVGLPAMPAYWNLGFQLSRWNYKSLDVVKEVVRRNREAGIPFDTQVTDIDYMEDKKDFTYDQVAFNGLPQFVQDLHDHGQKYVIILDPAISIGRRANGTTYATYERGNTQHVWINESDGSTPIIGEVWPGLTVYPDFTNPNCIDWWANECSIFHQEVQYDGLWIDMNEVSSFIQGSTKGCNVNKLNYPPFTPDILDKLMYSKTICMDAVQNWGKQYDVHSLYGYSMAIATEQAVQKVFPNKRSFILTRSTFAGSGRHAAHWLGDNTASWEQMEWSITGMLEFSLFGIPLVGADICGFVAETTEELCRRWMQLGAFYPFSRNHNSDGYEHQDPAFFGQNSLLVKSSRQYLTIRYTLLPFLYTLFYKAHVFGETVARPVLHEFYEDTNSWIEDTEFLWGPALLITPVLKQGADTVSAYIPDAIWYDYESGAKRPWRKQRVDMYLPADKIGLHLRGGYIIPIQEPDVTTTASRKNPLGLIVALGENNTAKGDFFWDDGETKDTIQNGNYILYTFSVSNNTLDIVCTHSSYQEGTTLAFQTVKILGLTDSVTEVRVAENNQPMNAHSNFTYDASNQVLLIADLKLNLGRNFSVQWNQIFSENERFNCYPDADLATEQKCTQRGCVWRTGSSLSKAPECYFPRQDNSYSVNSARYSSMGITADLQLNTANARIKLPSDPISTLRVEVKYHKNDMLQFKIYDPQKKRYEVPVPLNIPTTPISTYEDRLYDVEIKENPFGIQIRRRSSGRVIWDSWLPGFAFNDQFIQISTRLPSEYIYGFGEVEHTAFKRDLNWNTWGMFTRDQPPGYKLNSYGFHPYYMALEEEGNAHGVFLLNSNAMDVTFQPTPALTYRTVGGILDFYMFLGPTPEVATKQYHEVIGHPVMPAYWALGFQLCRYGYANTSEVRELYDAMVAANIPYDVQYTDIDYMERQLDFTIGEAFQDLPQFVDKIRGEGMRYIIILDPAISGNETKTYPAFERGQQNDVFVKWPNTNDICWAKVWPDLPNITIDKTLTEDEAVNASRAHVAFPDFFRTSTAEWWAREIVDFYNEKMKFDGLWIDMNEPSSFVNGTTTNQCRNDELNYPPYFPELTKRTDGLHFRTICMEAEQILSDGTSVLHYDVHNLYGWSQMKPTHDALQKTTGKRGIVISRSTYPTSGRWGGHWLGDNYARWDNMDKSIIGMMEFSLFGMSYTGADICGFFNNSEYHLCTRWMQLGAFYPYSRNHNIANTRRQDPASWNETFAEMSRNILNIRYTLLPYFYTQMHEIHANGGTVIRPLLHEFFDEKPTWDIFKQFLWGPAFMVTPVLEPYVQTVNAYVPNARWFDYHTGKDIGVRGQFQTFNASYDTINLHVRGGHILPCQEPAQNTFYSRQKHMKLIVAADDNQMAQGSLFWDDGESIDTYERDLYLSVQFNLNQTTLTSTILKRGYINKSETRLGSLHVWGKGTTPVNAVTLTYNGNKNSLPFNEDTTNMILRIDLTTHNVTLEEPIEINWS

SMILES: O=C[C@H](O)[C@@H](O)[C@@H](O)CO [L-arabinose]
- change in blood-sugar level, L-arabinose without sucrose [1]: no decrease in blood-sugar level takes place
- rise of blood-sugar level after loading with sucrose [2]: suppressing the rise of blood-sugar level
- action on sucrase [3]: inhibition of sucrase

Source: US20040038910A1, “Remedy for diabetes mellitus” (priority 2000, published 2004)
